Molecular target: T1, HMG-CoA reductase (Rattus norvegicus, UniProt P51639)
T1 sequence (P51639 1-887): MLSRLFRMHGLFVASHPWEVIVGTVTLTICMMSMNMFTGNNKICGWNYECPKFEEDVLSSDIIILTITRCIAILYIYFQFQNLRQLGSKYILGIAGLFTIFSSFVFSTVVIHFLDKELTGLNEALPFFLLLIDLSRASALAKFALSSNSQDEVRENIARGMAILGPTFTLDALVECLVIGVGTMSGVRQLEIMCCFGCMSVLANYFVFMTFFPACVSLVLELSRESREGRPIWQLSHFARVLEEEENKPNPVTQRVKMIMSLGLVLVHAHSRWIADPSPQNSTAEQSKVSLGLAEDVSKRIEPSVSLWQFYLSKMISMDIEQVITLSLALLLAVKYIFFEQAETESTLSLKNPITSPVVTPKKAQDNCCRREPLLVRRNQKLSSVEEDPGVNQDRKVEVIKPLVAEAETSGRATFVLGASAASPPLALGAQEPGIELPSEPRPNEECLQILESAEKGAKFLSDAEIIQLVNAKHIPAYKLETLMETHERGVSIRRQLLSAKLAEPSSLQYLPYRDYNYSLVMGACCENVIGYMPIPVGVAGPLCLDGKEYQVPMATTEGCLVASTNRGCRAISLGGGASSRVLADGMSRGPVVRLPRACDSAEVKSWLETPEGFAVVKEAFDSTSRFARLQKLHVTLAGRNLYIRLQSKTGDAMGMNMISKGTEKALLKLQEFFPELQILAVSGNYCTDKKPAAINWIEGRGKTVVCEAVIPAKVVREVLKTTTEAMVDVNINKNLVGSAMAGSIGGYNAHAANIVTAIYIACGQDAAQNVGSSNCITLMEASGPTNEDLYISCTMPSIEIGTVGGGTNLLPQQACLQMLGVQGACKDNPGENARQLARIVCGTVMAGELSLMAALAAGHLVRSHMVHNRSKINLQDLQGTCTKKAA
Assay: intrinsic HMG-CoA reductase inhibition, in vitro protocol of J. Med. Chem., 28, p. 347-358 (1985)
Format: biochemical
Conditions: compactin (mevastatin) assigned 100; IC50 of test compound compared with that of compactin determined simultaneously
Experimental: The intrinsic HMG-CoA reductase inhibition activity of the claimed compounds is measured in the in vitro protocol published in J. Med. Chem., 28, p. 347-358 (1985).
For estimation of relative inhibitory potencies, compactin (i.e., mevastatin) was assigned a value of 100 and the IC50 value of the test compound was compared with that of compactin determined simultaneously in the published in vitro protocol.

Row | Relative Potency | Structure (SMILES)
1 | 360 | CCC(C)(C)C(=O)O[C@H]1C[C@@H](C)[C@@H](OC(=O)NCc2ccccc2)[C@@H]2CC[C@H](C)[C@H](CC[C@@H]3C[C@@H](O)CC(=O)O3)[C@H]21 [6(R)-[2-[8(S) (2,2-dimethylbutyryloxy)-2(S)methyl 5(R)-benzylaminocarbonyloxy-6(R)-methyl-1,2,3,4,4a(R)-,5,6,7,8,8a(R)-decahydronaphthyl-1(S)]ethyl]-4-(R)-hydroxy-3,4,5,6-tetrahydro-2H-pyran-2-one]
2 | 300 | CCC(C)(C)C(=O)O[C@H]1C[C@@H](C)[C@@H](OCCc2ccccc2)[C@@H]2CC[C@H](C)[C@H](CC[C@@H]3C[C@@H](O)CC(=O)O3)[C@H]21 [6(R)-[2-[8(S)-(2,2-dimethylbutyryloxy)-2(S)-methyl-5(R)-(1-phenylethyl-2-oxy)-6(R)-methyl-1,2,3,4,4a(R)-,5,6,7,8, 8a(R)-decahydronaphthyl-1(S)]ethyl]-4(R)-hydroxy-3,4,5,6-tetrahydro-2H-pyran-2-one]
3 | 300 | CCC(C)(C)C(=O)O[C@H]1C[C@@H](C)[C@@H](OP(=O)(c2ccccc2)c2ccccc2)[C@@H]2CC[C@H](C)[C@H](CC[C@@H]3C[C@@H](O)CC(=O)O3)[C@H]21 [6(R)-[2-[8(S)-(2,2-dimethylbutyryloxy)-2(S)-methyl-5(R)-diphenylphosphinyloxy-6(R)-methyl-1,2,3,4,4a(R),5,6,7,8,8a(R)-decahydronaphthyl-1(S)]ethyl]-4(R)-hydroxy-3,4,5,6-tetrahydro-2H-pyran-2-one]
4 | 50 | CCC(C)(C)C(=O)O[C@H]1C[C@@H](C)[C@@H](O)[C@@H]2CC[C@H](C)[C@H](CC[C@@H]3C[C@@H](O)CC(=O)O3)[C@H]21 [6(R)-[2-[8(S)-(2,2-dimethylbutyryloxy)-2(S)-methyl-5(R)-hydroxy-6(R)-methyl-1,2,3,4,4a(R),6,7,8,8a(R)-decahydronapththyl-1(S)]ethyl]-4(R)-hydroxy-3,4,5,6-tetrahydro-2H-pyran-2-one]
5 | 100 | CCC(C)(C)C(=O)O[C@H]1C[C@@H](C)[C@@H](O)[C@@H]2C=C[C@H](C)[C@H](CC[C@@H]3C[C@@H](O)CC(=O)O3)[C@H]21 [6(R)-[2-[8(S)-(2,2-dimethylbutyryloxy)-2(S)-methyl-5(R)-hydroxy-6(R)-methyl-1,2,4a(R),5,6,7,8,8a(R)-octahydronaphthyl-1(S)]ethyl]-4(R)-hydroxy-3,4,5,6-tetrahydro-2H-pyran-2-one]
6 | 99.6 | CCC(C)(C)C(=O)O[C@H]1C[C@H](C)[C@@H](O)[C@@H]2CC[C@H](C)[C@H](CC[C@@H]3C[C@@H](O)CC(=O)O3)[C@H]21 [6(R)-[2-[8(S)-(2,2-dimethylbutyryloxy)-2(S)-methyl-5(R)-hydroxy-6(S)-methyl-1,2,3,4,4a(R)-,6,7,8,8a(R)-decahydronaphthyl-1(S)]ethyl]-4(R)-hydroxy-3,4,5,6-tetrahydro-2H-pyran-2-one]
7 | 11.1 | CCC(C)(C)C(=O)O[C@H]1C[C@H](C)[C@H](O)[C@@H]2CC[C@H](C)[C@H](CC[C@@H]3C[C@@H](O)CC(=O)O3)[C@H]21 [6(R)-[2-[8(S)-(2,2-dimethylbutyryloxy)-2(S)-methyl-5(S)-hydroxy-6(S)-methyl-1,2,3,4,4a-(R)-,6,7,8,8a(R)-decahydronaphthyl-1(S)]ethyl]-4(R)-hydroxy-3,4,5,6-tetrahydro-2H-pyran-2-one]
8 | 125 | CCC(C)(C)C(=O)O[C@H]1C[C@@H](C)C(=O)[C@@H]2CC[C@H](C)[C@H](CC[C@@H]3C[C@@H](O)CC(=O)O3)[C@@H]12 [6(R)-[2-[8(S)-(2,2-dimethylbutyryloxy)-2(S)-methyl-5-oxo-6(R)-methyl-1,2,3,4,4a(R)-,6,7,8,8a(R)-nonanydronaphthyl-1(S)]ethyl]-4(R)-hydroxy-3,4,5,6-tetrahydro-2H-pyran-2-one]
9 | 94 | CCC(C)(C)C(=O)O[C@H]1C[C@@H](C)[C@@H](OC(=O)N(Cc2ccccc2)Cc2ccccc2)[C@@H]2CC[C@H](C)[C@H](CC[C@@H]3C[C@@H](O)CC(=O)O3)[C@H]21 [6(R)-[2-[8(S)-(2,2-dimethylbutyryloxyl)-2(S)-methyl-5(R)-dibenzylaminocarbonyloxy-6(R)-methyl-1,2,3,4,4a(R)-,5,6,7,8,8a(R)-decahydronaphthyl-1(S)]ethyl]-4(R)-hydroxy-3,4,5,6-tetrahydro-2H-pyran-2-one]

— US4963538A, “5-oxygenated HMG-CoA reductase inhibitors” (Merck & Co., Inc., priority 1989, dated 1990)
